Data taken from patent publication US20170298056A1, “SMALL MOLECULE INHIBITORS OF HIV-1 ENTRY AND METHODS OF USE THEREOF” (Dana-Farber Cancer Institute, Inc., priority 2014, published 2017).
pIC50: −log10 of the molar value. Read-outs that look alike come from different tables or passages of the source.

How the values were obtained:
Assay type in all cases: cell-based
[1] = test system: HIV-1HXBc2; test: Viral infection assay, CXCR4-tropic virus, Cf2Th-CD4/CXCR4 cells; conditions: HIV-1HXBc2, Cf2Th cells expressing CD4 and CXCR4
[2] = test system: amphotropic murine leukemia virus (A-MLV); test: Viral infection assay, control virus with A-MLV envelope
Experimental: Production of recombinant HIV-1 expressing luciferase. […] After 48 hours, the supernatant was collected, buffered with 50 mM Hepes pH 7.4 (final concentration) and centrifuged for 5 minutes at 750×g and 4° C. The virus-containing supernatant was used directly or frozen at −80° C.
Viral infection assay. Each test compound was serially diluted in DMSO in a 96-well B&W isoplate (PerkinElmer, Boston, Mass.) using an HP D300 Digital Dispenser, to a final volume of 450 nl. DMSO was used as a control. Viruses pseudotyped with a specific Env were added to each well and incubated briefly at room temperature. Cf2Th-CD4/CCR5 cells were detached with StemPro Accutase Cell Dissociation Reagent (Invitrogen, cat #A11105-01), washed once, and 5000 cells were added to each well. […] Following incubation, the medium was aspirated and cells were lysed with 30 μl of Passive Lysis Buffer (Promega, cat #E1941). The activity of the firefly luciferase, which was used as a reporter protein in the system, was measured with a Centro LB 960 luminometer (Berthold Technologies, Oak Ridge, Tenn.). One hundred microliters of assay buffer (15 mM MgSO4, 15 mM KH2PO4/K2HPO4 pH 7.8, 1 mM ATP and 1 mM DTT) was injected to each well, followed by a 50 μl injection of 1 mM Dluciferin potassium salt (BD Pharmingen, San Jose, Calif.); luminescence was measured for 2 sec. Infection of PBMC was done as above, but 20,000-40,000 cells/well and viruses concentrated by ultracentrifugation were used. After four hours of incubation with viruses, the cells were centrifuged at 200×g for 6 minutes at 4° C., resuspended in 100 μl RPMI-PBMC medium and incubated at 37° C. for an additional 36-40 hours (total 40-44 hours). Supernatant was removed after centrifugation at 400×g for 5 minutes and cells were processed to detect luciferase activity, as described above.
The effect of 18A on viral infection was tested using recombinant HIV-1 pseudotyped with the envelope glycoproteins of different primate immunodeficiency viruses or the amphotropic murine leukemia virus (A-MLV) as a control.

[3] = test system: cell-cell fusion mediated by HIV-1JR-FL and HIV-1ADS Envs; test: Cell-cell fusion assay
Experimental: H-JRFL#1336 (effector) and H-Fluc4 (control) cells were grown in DMEM containing 10% FBS, 100 μg/ml streptomycin, 100 units/ml penicillin, 200 μg/ml G418, 1 μg/ml puromycin and 2 μg/ml doxycycline. H-JRFL#13 cells carry an HIV-1JR-FL env gene that is induced by growing the cells in the absence of doxycycline (Tet-Off expression system). H-Fluc4 cells, which carry a firefly luciferase gene that is induced in the absence of doxycycline, were used as specificity controls. Both cell lines were derived from HeLa cells and constitutively express the tetracycline-regulated transactivator (Tet-Off expression system). […]
H-JRFL#13 or H-FLuc4 cells were washed thrice, detached with StemPro Accutase, centrifuged at 200×g for 6 minutes at 10° C. and seeded in DMEM containing 10% tetracycline-approved FBS, 100 μg/ml streptomycin, 100 units/ml penicillin, 100 μg/ml G418, 1 μg/ml puromycin and without Phenol Red. […] Firefly luciferase activity was measured using an EnVision Multilabel Plate Reader (PerkinElmer, Boston, Mass.). […]
To identify new molecules that potentially affect HIV-1 entry, a cell-cell fusion assay that mimics the entry of HIV-1 into cells was established (FIG. 1a). The assay uses a firefly luciferase (F-luc) readout to measure the fusion of HeLa effector cells that express the Envs from a primary HIV-1 strain and target cells coexpressing the CD4 and CCR5 receptors. […]

**Q.** With `O=C(N/N=C/c1ccc(O)cc1)Nc1cccc2nsnc12` [Compound 18A] as the molecule, how does the pIC50 [1] read?
**A.** Its pIC50 is ~4.60.

**Q.** What about the pIC50 ([2]; Cf2Th-CD4/CCR5 cells, read-out: IC50 for the control A-MLV) of the same molecule?
**A.** Its pIC50 is 4.25.

**Q.** And the pIC50 ([2]; Example 8 table, read-out: IC50 (A-MLV))?
**A.** The pIC50 was 4.25.

**Q.** And the cell-cell fusion [3]?
**A.** Its cell-cell fusion is “specifically inhibited cell-cell fusion”.
